Laboratory results reported in patent publication US8163509B2, “Biological markers predictive of anti-cancer response to insulin-like growth factor-1 receptor kinase inhibitors” (The Regents of the University of Colorado, A Body Corporate, priority 2008, dated 2012).

Molecular target: T1, IGF1R (Homo sapiens, UniProt P08069)
T1 construct: endogenous in cells; host or cells: HT29 and HCT116 CRC cell lines
Experiment: Meso Scale Discovery (MSD) assay of phosphorylated IGF1R
Type: cell-based
Conditions: HT29 and HCT116; 72 h; PQIP 0.4 μmol/L, SN38 0.004 μmol/L, Oxaliplatin 1.0 μmol/L
Protocol: Detection of IGF1R using Meso Scale Discovery assays (MSD): HT29 and HCT116 CRC cell lines were seeded into 6-well plates, allowed to attach for 24 hours and exposed to PQIP and chemotherapy (SN38, or Oxaliplatin) alone or in combination for 72 h. Following exposure, cells were rinsed with PBS and scraped into RIPA lysis buffer containing protease inhibitors, EDTA, NaF, and sodium orthovanadate. Total protein was quantified using the BioRad Dc Protein Assay (BioRad, Hercules, Calif.). Fifty micrograms of protein in 25 μL was added per well for MSD detection of phosphorylated IGF-1R according to manufacturer's instructions (Meso Scale Discovery, Gaithersburg, Md.).
Cells were exposed to PQIP (0.4 μmol/L) and chemotherapy (SN38 0.004 μmol/L, or Oxaliplatin 1.0 μmol/L) alone or in combination for 72 h. Protein was extracted and analyzed for phospho/total IGF1R levels using a Meso Scale Discovery (MSD; Gaithersburg, Md. 20877) assay.

T1 sequence (P08069 31-1367): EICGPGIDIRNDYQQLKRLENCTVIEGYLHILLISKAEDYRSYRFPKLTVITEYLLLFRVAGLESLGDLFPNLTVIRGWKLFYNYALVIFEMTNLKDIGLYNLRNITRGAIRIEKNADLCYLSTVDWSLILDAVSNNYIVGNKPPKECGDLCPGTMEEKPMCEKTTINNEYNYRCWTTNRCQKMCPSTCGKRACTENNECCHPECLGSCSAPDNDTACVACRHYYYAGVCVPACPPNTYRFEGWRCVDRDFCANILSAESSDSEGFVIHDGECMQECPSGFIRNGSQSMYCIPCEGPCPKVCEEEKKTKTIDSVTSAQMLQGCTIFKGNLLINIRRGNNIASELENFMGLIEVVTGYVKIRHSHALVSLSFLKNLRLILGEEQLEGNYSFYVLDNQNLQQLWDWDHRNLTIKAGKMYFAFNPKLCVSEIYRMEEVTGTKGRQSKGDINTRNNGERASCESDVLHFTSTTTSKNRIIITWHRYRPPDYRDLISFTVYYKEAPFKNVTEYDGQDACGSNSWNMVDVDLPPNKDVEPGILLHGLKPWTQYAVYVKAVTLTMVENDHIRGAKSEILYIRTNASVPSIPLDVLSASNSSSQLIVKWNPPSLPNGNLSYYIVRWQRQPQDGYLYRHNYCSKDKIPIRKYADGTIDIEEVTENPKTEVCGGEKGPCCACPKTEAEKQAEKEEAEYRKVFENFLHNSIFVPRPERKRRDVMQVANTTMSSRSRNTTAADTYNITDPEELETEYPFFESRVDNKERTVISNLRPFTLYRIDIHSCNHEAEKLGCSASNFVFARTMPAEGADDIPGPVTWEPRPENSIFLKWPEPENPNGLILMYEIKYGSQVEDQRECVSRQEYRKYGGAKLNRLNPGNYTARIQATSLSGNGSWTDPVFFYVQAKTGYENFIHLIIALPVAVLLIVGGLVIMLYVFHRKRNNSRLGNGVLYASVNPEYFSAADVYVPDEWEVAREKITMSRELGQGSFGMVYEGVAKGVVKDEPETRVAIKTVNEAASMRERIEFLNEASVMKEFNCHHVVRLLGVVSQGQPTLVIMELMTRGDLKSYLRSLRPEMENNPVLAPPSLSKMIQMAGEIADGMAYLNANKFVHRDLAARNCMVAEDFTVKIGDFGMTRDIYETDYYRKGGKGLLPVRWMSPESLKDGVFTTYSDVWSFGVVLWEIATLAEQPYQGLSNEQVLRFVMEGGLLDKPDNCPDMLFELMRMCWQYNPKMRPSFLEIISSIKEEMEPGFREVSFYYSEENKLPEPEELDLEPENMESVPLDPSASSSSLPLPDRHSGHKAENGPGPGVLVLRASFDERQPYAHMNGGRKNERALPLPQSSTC

SMILES	effect on phosphorylated IGF1R, agent alone
O=C1[O][Pt]2([NH][C@@H]3CCCC[C@H]3[NH]2)[O]C1=O [Oxaliplatin, reference compound]	no significant effect
CCc1c2c(nc3ccc(O)cc13)-c1cc3c(c(=O)n1C2)COC(=O)[C@]3(O)CC [SN38, 7-Ethyl-10-hydroxy-camptothecin, reference compound]	no significant effect
